Laboratory results: patent US20240158440A1, “PEPTIDE AND COMPOSITION CONTAINING PEPTIDE AS ACTIVE INGREDIENT” (MORINAGA MILK INDUSTRY CO., LTD., priority 2021, published 2024)
No end group written: not given here.

Assays:
Assay type in all cases: in vivo
male ddy mice [1] = experiment: Tail suspension test; details: for Immobile Time: control 99.0; for Immobile Time (second): 30 minutes before the test, control 88.9, *P<0.05 vs Control
Procedure: A tail suspension test used for screening an antidepressant was conducted. When a mouse is hung by fixing its tail and thus put under inescapable conditions, it is believed that the mouse first tries to escape and moves but becomes immobile by despair with the time. On the other hand, in a mouse treated with an antidepressant, the time of escaping behavior increases, and the immobile time decreases. That is, when the immobile time decreases, the drug is evaluated to have an antidepressive effect.
The WPH synthesized in Production Example 1 was administered at a dose of 1 mg, 10 mg or 100 mg per 1 kg body weight to male ddy mice 30 minutes before the test, and 30 minutes later, the mice were hung by fixing their tails to conduct the test (WPH administration group, n=9-11). For six minutes after starting, the time with immobile behavior was recorded.
Moreover, as a control, the same test was conducted using male ddy mice to which the peptide as the test substance was not administered (control group, n=9-11).
From the obtained results, the times (second) with immobile behavior were calculated as an indicator of the antidepressive activity.
The peptide NLPPLT synthesized in Production Example 2 was administered at a dose of 10 μg or 30 μg per 1 kg body weight to male ddy mice 30 minutes before the test, and 30 minutes later, the mice were hung by fixing their tails to conduct the test (peptide NLPPLT administration group, n=5-6). For six minutes after starting, the time with immobile behavior was recorded.
Moreover, as a control, the same test was conducted using male ddy mice to which the peptide as the test substance was not administered (control group, n=5-6). […]

male ddy mice [2] = experiment: Elevated plus maze test
Excerpt: An elevated plus maze having a plus shape in which two flat plates (arms) of 25 cm×5 cm were crossed was placed at a height of 50 cm from the floor. One type of the arms is closed arms having transparent walls with a height of 15 cm, and a mouse can walk safely without fear of falling. The other arms are open arms without such walls, and the sides are open. […] Through anxiolytic treatment of a mouse, however, the time of stay in the open arms tends to be longer. Thus, in a confirmation test of an anxiolytic action, the anxiolytic activity becomes higher as the time of stay of a mouse in the open arms is longer or as the number of entries is higher. […]
The peptide NLPPLT synthesized in Production Example 2 was administered at a dose of 3 μg or 10 μg per 1 kg body weight to male ddy mice 30 minutes before the test, and 30 minutes later, each mouse was put on the central platform where the open arms crossed the closed arms to conduct the test (peptide NLPPLT administration group, n=6). For five minutes after starting, the total time of stay of the mouse on the open arms (time in open arms), the number of entries into the open arms (visit to open arms) and the total number of entries into the arms (total visits) were recorded.
Moreover, as a control, the same test was conducted using male ddy mice to which the peptide as the test substance was not administered (control group, n=6).
Furthermore, to examine the mechanism of action, the same test was conducted using male ddy mice to which 10 mg/kg of an antagonist of the serotonin 5-HT1A receptor, WAY100135 (manufactured by Tocris Bioscience) was orally administered in addition to 10 μg/kg body weight of the peptide NLPPLT synthesized in Production Example 2 (peptide NLPPLT+serotonin antagonist administration group, n=5).
From the obtained results, the proportions (%) of the time of stay on the open arms and the proportions (%) of the number of entries into the open arms were calculated as indicators of the anxiolytic activity, and the differences with a statistical significance were examined by the Tukey-Kramer method.

male ddy mice [3] = experiment: Open field test; details: for Proportion (%) of Time of Stay in Center Circle / Proportion (%) of Number of Entries into Center Circle: 30 minutes before the test; for Proportion (%) of Time of Stay in Center Circle: control 0.3; for Proportion (%) of Number of Entries into Center Circle: control 1.5
Procedure: An open field test was conducted as a behavior test used for screening an antianxiety drug. […] […] Here, in this open field test, a circular field consisting of a plurality of concentric circles with a common center with different radii was used. The circle closest to the center in the field is considered as the center of the field, and the time in which a mouse placed in the center of the field stays in the center of the field is measured.
The peptide NLPPLT synthesized in Production Example 2 was administered at a dose of 10 μg, 30 μg or 100 μg per 1 kg body weight to male ddy mice 30 minutes before the test, and 30 minutes later, each mouse was put in the center of the field to conduct the test (peptide NLPPLT administration group, n=5). For five minutes after starting, the time of stay was recorded.
Moreover, as a control, the same test was conducted using male ddy mice to which the peptide as the test substance was not administered (control group, n=5-6).
From the obtained results, the proportions (%) of the time of stay were calculated as an indicator of the anxiolytic activity.

Row | Compound | Immobile Time (male ddy mice [1]; Table 7, NBQX 10 mg/kg (i.p.) alone) | Proportion (%) of Time of Stay on Open Arms (male ddy mice [2]; Table 2, peptide alone (dose not given; 10 μg/kg), control 20.9) | Proportion (%) of Number of Entries into Open Arms (male ddy mice [2]; Table 2, peptide alone (dose not given; 10 μg/kg), control 26.7) | Proportion (%) of Time of Stay on Open Arms (male ddy mice [2]; Table 3, 3 μg/kg, 30 minutes before the test, control 15.4) | Proportion (%) of Number of Entries into Open Arms (male ddy mice [2]; Table 3, 3 μg/kg, 30 minutes before the test, control 22.7) | Proportion (%) of Time of Stay on Open Arms (male ddy mice [2]; Table 3, 10 μg/kg, 30 minutes before the test, control 15.4) | Proportion (%) of Number of Entries into Open Arms (male ddy mice [2]; Table 3, 10 μg/kg, 30 minutes before the test, control 22.7) | Anxiolytic activity (time of stay on / entries into open arms compared to control) (male ddy mice [2]; conclusion in words) | Proportion (%) of Time of Stay in Center Circle (male ddy mice [3]; 0.01 mg/kg) | Proportion (%) of Number of Entries into Center Circle (male ddy mice [3]; 0.01 mg/kg) | Proportion (%) of Time of Stay in Center Circle (male ddy mice [3]; 0.03 mg/kg) | Proportion (%) of Number of Entries into Center Circle (male ddy mice [3]; 0.03 mg/kg) | Proportion (%) of Time of Stay in Center Circle (male ddy mice [3]; 0.1 mg/kg) | Proportion (%) of Number of Entries into Center Circle (male ddy mice [3]; 0.1 mg/kg) | Anxiolytic activity (time of stay in center compared to control) (male ddy mice [3]; conclusion in words) | Immobile Time (second) (male ddy mice [1]; Table 6, 0.01 mg/kg) | Immobile Time (second) (male ddy mice [1]; Table 6, 0.03 mg/kg) | Immobile Time (male ddy mice [1]; Table 7, NLPPLT 0.01 mg/kg (p.o.) alone) | Antidepressive activity (time with immobile behavior compared to control) (male ddy mice [1]; conclusion in words)
1 | NS(=O)(=O)c1cccc2c1c([N+](=O)[O-])cc1nc(O)c(O)nc12 [AMPA Antagonist, NBQX, reference compound] | 69.8 s |  |  |  |  |  |  |  |  |  |  |  |  |  |  |  |  |  | 
2 | NLPPLT [Peptide NLPPLT] |  | 33.1% | 35.1% | 19.9% | 23.4% | 24.4% | 31.7% | has an anxiolytic activity | 0.6% | 1.7% | 0.7% | 1.6% | 0.8% | 2.1% | has an anxiolytic activity | 15.7* second | 27.1* second | 23.0 s | has an antidepressive activity
